Article PMC10939713 (Pharmaceutical research, 2024)
“Also recorded” adds a separate entry of the source. Counter-ions that a name gives are not always drawn. One block for each compound: values may come before it.

Tests used:
[1] = Mouse pharmacokinetic natural product-drug interaction study; format: in vivo, C57BL/6 mice; settings: for AUC(0-t) / Cmax / AUC0-4h / AUC0-24h / Metabolite-to-parent AUC0-4h ratio / Metabolite-to-parent AUC0-24h ratio: geometric mean (CV%); for tmax: median (range)
[2] = rats; oral administration of EGCG and sunitinib; cited from earlier work
[3] = rats; EGCG group (control group 79%); cited from earlier work
[4] = FaSSIF pH 6.5
[5] = FeSSIF pH 5.0
[6] = Drug solubility in simulated intestinal fluids; format: physicochemical
[7] = cited from earlier work
[8] = cited from earlier work; remark: listed apart in the source
[9] = mice, plasma, raloxifene 20 mg/kg oral with EGCG 12.96 mg/kg
[10] = mice, plasma, raloxifene 20 mg/kg oral with green tea extract 200 mg/kg
[11] = mice, raloxifene 20 mg/kg oral alone in vehicle
[12] = mice, raloxifene 20 mg/kg oral with EGCG 12.96 mg/kg
[13] = mice, raloxifene 20 mg/kg oral with green tea extract 200 mg/kg

- effect on Cmax of raloxifene and raloxifene-6-glucuronide (in words) ([1]; mice, compared to vehicle group, EGCG 12.96 mg/kg): no effect
- effect on raloxifene solubility in FaSSIF (in words) [4]: decreased the solubility
Compound: O=C(O[C@@H]1Cc2c(O)cc(O)cc2O[C@@H]1c1cc(O)c(O)c(O)c1)c1cc(O)c(O)c(O)c1 [EGCG, (−)-epigallocatechin gallate]
- reduction of sunitinib AUC0-∞ [2]: 52%
- reduction of sunitinib Cmax [2]: 48%
- intestinal absorption of cholesterol from a test meal [3]: 63%
- effect on raloxifene solubility (concentration) in FeSSIF (in words) [5]: neither green tea extract nor EGCG significantly affected; also recorded: did not change; also recorded: Neither green tea extract nor EGCG had a significant effect

- solubility in simulated intestinal fluids (in words) ([6]; at 0.16 mg/mL): completely soluble
Compound: CC(C)(C)NCC(O)COc1cccc2c1CC(O)C(O)C2 (centres unmarked) [Nadolol]
- logP [7]: 0.85

- raloxifene solubility in FeSSIF compared to FaSSIF ([6]; FeSSIF pH 5.0 vs FaSSIF pH 6.5): 3.4 fold
- overt effects in the mice after administration ([1]; during the study): No overt effects
- AUC(0-t) ([1]; male, C57BL/6, mouse, plasma, po, 20 mg/kg, AUC0-4h, mice, raloxifene 20 mg/kg oral with EGCG 12.96 mg/kg): 0.322 µM·h
- AUC(0-t) ([1]; male, C57BL/6, mouse, plasma, po, 20 mg/kg, AUC0-4h, mice, raloxifene 20 mg/kg oral with green tea extract 200 mg/kg): 0.2 µM·h
- AUC(0-t) ([1]; male, C57BL/6, mouse, plasma, po, 20 mg/kg, AUC0-24h, mice, raloxifene 20 mg/kg oral with EGCG 12.96 mg/kg): 0.867 µM·h
- AUC(0-t) ([1]; male, C57BL/6, mouse, plasma, po, 20 mg/kg, AUC0-24h, mice, raloxifene 20 mg/kg oral with green tea extract 200 mg/kg): 0.669 µM·h
- Cmax ([1]; male, C57BL/6, mouse, plasma, po, 20 mg/kg, Cmax, mice, raloxifene 20 mg/kg oral with EGCG 12.96 mg/kg (0, 4, 8 h)): 168 nM
- Cmax ([1]; male, C57BL/6, mouse, plasma, po, 20 mg/kg, Cmax, mice, raloxifene 20 mg/kg oral with green tea extract 200 mg/kg (0, 4, 8 h)): 79 nM
- tmax ([1]; male, C57BL/6, mouse, plasma, po, 20 mg/kg, tmax, mice, raloxifene 20 mg/kg oral with EGCG 12.96 mg/kg): 0.5 h
- tmax ([1]; male, C57BL/6, mouse, plasma, po, 20 mg/kg, tmax, mice, raloxifene 20 mg/kg oral with green tea extract 200 mg/kg): 4 h
Compound: O=C(c1ccc(OCCN2CCCCC2)cc1)c1c(-c2ccc(O)cc2)sc2cc(O)ccc12 [Raloxifene, Raloxifene hydrochloride]
- logP [7]: 5.78
- oral bioavailability [8]: ~ 2%

- Cmax ([1]; mice, plasma, raloxifene 20 mg/kg oral with EGCG 12.96 mg/kg (0, 4, 8 h)): 820 nM
- AUC0-4h [1, 9]: 1200 (53) nM•h
- AUC0-24h [1, 9]: 2150 (52) nM•h
- Cmax ([1]; mice, plasma, raloxifene 20 mg/kg oral with green tea extract 200 mg/kg (0, 4, 8 h)): 288 nM
- AUC0-4h [1, 10]: 624 (31) nM•h
- AUC0-24h [1, 10]: 1560 (32) nM•h
- Metabolite-to-parent AUC0-4h ratio [1, 11]: 2.74 (30)
- Metabolite-to-parent AUC0-24h ratio [1, 11]: 2.23 (36)
- tmax [1, 11]: 0.25 (0.25 - 0.5) h
- Metabolite-to-parent AUC0-4h ratio [1, 12]: 3.74 (25)
- Metabolite-to-parent AUC0-24h ratio [1, 12]: 2.48 (38)
- tmax [1, 12]: 0.5 (0.25 - 4) h
- Metabolite-to-parent AUC0-4h ratio [1, 13]: 3.12 (34)
- Metabolite-to-parent AUC0-24h ratio [1, 13]: 2.33 (24)
- tmax [1, 13]: 0.25 (0.25 - 0.5) h
Compound: O=C(c1ccc(OCCN2CCCCC2)cc1)c1c(-c2ccc(O)cc2)sc2cc(O[C@@H]3O[C@H](C(=O)O)[C@@H](O)[C@H](O)[C@H]3O)ccc12 [Raloxifene-6-glucuronide, raloxifene-6-glucuronide]
